Numbers after ± are expanded uncertainties.
Assays:
[1] = xn = mol fraction of the nth substance listed; details: isochoric method
[2] = for mass density: isochoric method; for vapor or sublimation pressure: Diaphragm manometer

CCOCC [diethyl ether] + CCC
[1]
Details | mass density [kg/m3]
351.8 K, 2080 kPa, Liquid, x2 = 0.748 | 474 ± 27
359.2 K, 4110 kPa, Fluid (supercritical or subcritical phases), x2 = 0.748 | 474 ± 24
362.8 K, 2080 kPa, Liquid, x2 = 0.651 | 474
369.5 K, 7470 kPa, Fluid (supercritical or subcritical phases), x2 = 0.748 | 474 ± 24
370.3 K, 3910 kPa, Fluid (supercritical or subcritical phases), x2 = 0.651 | 474 ± 24
372 K, 3100 kPa, Liquid, x2 = 0.743 | 401 ± 28
379.4 K, 6660 kPa, Fluid (supercritical or subcritical phases), x2 = 0.651 | 474 ± 24
379.4 K, 10830 kPa, Fluid (supercritical or subcritical phases), x2 = 0.748 | 474 ± 24
382.7 K, 4110 kPa, Fluid (supercritical or subcritical phases), x2 = 0.743 | 401 ± 24
387.9 K, 9300 kPa, Fluid (supercritical or subcritical phases), x2 = 0.651 | 474 ± 24
390.1 K, 5340 kPa, Fluid (supercritical or subcritical phases), x2 = 0.743 | 401 ± 24
391.1 K, 14590 kPa, Fluid (supercritical or subcritical phases), x2 = 0.748 | 474 ± 24
394.9 K, 4010 kPa, Liquid, x2 = 0.655 | 401 ± 35
397.1 K, 12250 kPa, Fluid (supercritical or subcritical phases), x2 = 0.651 | 474 ± 24
399.9 K, 4420 kPa, Liquid, x2 = 0.742 | 311 ± 46
401.1 K, 7670 kPa, Fluid (supercritical or subcritical phases), x2 = 0.743 | 401 ± 24
401.1 K, 17840 kPa, Fluid (supercritical or subcritical phases), x2 = 0.748 | 474 ± 24
401.9 K, 5030 kPa, Fluid (supercritical or subcritical phases), x2 = 0.655 | 401 ± 24
405.6 K, 5640 kPa, Fluid (supercritical or subcritical phases), x2 = 0.655 | 401 ± 24
407.5 K, 5130 kPa, Fluid (supercritical or subcritical phases), x2 = 0.742 | 311 ± 22
407.7 K, 15710 kPa, Fluid (supercritical or subcritical phases), x2 = 0.651 | 474 ± 24
409.2 K, 4620 kPa, Liquid, x2 = 0.651 | 311 ± 39
410.7 K, 9710 kPa, Fluid (supercritical or subcritical phases), x2 = 0.743 | 401 ± 24
411.4 K, 21600 kPa, Fluid (supercritical or subcritical phases), x2 = 0.748 | 474 ± 24
412 K, 6760 kPa, Fluid (supercritical or subcritical phases), x2 = 0.655 | 401 ± 24
417.7 K, 6250 kPa, Fluid (supercritical or subcritical phases), x2 = 0.742 | 311 ± 22
418.5 K, 5130 kPa, Fluid (supercritical or subcritical phases), x2 = 0.651 | 311 ± 22
419.2 K, 19360 kPa, Fluid (supercritical or subcritical phases), x2 = 0.651 | 474 ± 24
419.7 K, 11640 kPa, Fluid (supercritical or subcritical phases), x2 = 0.743 | 401 ± 24
422.6 K, 8790 kPa, Fluid (supercritical or subcritical phases), x2 = 0.655 | 401 ± 24
429.1 K, 6250 kPa, Fluid (supercritical or subcritical phases), x2 = 0.651 | 311 ± 22
429.1 K, 7570 kPa, Fluid (supercritical or subcritical phases), x2 = 0.742 | 311 ± 22
429.6 K, 10210 kPa, Fluid (supercritical or subcritical phases), x2 = 0.655 | 401 ± 24
430.4 K, 13770 kPa, Fluid (supercritical or subcritical phases), x2 = 0.743 | 401 ± 24
437.5 K, 11740 kPa, Fluid (supercritical or subcritical phases), x2 = 0.655 | 401 ± 24
437.5 K, 15300 kPa, Fluid (supercritical or subcritical phases), x2 = 0.743 | 401 ± 24
437.8 K, 8590 kPa, Fluid (supercritical or subcritical phases), x2 = 0.742 | 311 ± 22
438.5 K, 7270 kPa, Fluid (supercritical or subcritical phases), x2 = 0.651 | 311 ± 22
447.3 K, 9710 kPa, Fluid (supercritical or subcritical phases), x2 = 0.742 | 311 ± 22
447.6 K, 13670 kPa, Fluid (supercritical or subcritical phases), x2 = 0.655 | 401 ± 24
449 K, 8390 kPa, Fluid (supercritical or subcritical phases), x2 = 0.651 | 311 ± 22
452.4 K, 18650 kPa, Fluid (supercritical or subcritical phases), x2 = 0.743 | 401 ± 24
455 K, 15200 kPa, Fluid (supercritical or subcritical phases), x2 = 0.655 | 401 ± 24
458.5 K, 9500 kPa, Fluid (supercritical or subcritical phases), x2 = 0.651 | 311 ± 22
459 K, 11220 kPa, Fluid (supercritical or subcritical phases), x2 = 0.742 | 311 ± 22
466.1 K, 12150 kPa, Fluid (supercritical or subcritical phases), x2 = 0.742 | 311 ± 22
467.4 K, 10620 kPa, Fluid (supercritical or subcritical phases), x2 = 0.651 | 311 ± 22
470 K, 10930 kPa, Fluid (supercritical or subcritical phases), x2 = 0.651 | 311 ± 22

COC [dimethyl ether]
[2]
Details | mass density [kg/m3]
382.8 K, 4580 kPa, Liquid | 451 ± 24
402.8 K, 8580 kPa, Gas | 451 ± 52
411.6 K, 10360 kPa, Gas | 451 ± 56
419.5 K, 12150 kPa, Gas | 451 ± 60
425.4 K, 13670 kPa, Gas | 451 ± 61
429.8 K, 14600 kPa, Gas | 451 ± 67
432.6 K, 15210 kPa, Gas | 451 ± 66
437.2 K, 16200 kPa, Gas | 451 ± 63

CCC [propane]
[2], Liquid
Details | vapor or sublimation pressure [kPa]
305.9 K | 1030 ± 820
319.2 K | 1270 ± 820
326.8 K | 2260 ± 820
334.3 K | 2350 ± 820
349.3 K | 3040 ± 820
362.1 K | 3920 ± 830
367.9 K | 4440 ± 830

[2], Gas
Details | mass density [kg/m3]
383.7 K, 5980 kPa | 292 ± 46
397.4 K, 7350 kPa | 292 ± 44
402.9 K, 7940 kPa | 292 ± 43
434 K, 12760 kPa | 292 ± 38

CCOCC [diethyl ether]
[2], Liquid
Details | vapor or sublimation pressure [kPa]
424.3 K | 1790 ± 820
434.3 K | 2150 ± 820
438.9 K | 2390 ± 820

[2], Liquid
Details | mass density [kg/m3]
442.3 K, 3250 kPa | 473 ± 24
445.3 K, 3750 kPa | 473 ± 24
447.8 K, 4200 kPa | 473 ± 24
450.2 K, 4750 kPa | 473 ± 24
453.9 K, 5680 kPa | 473 ± 24
459.4 K, 6890 kPa | 473 ± 24

CCCCC [pentane]
Details | vapor or sublimation pressure [kPa]
[2], 406.9 K, Liquid | 1300 ± 820

[2], Liquid
Details | mass density [kg/m3]
417.1 K, 3060 kPa | 484 ± 24
428 K, 6070 kPa | 484 ± 24
436.6 K, 8340 kPa | 484 ± 24
446.3 K, 10730 kPa | 484 ± 24
453.2 K, 12730 kPa | 484 ± 24

CCCCC [pentane] + CCC
[1]
Details | mass density [kg/m3]
319.6 K, 5320 kPa, Liquid, x2 = 0.849 | 507 ± 26
320.4 K, 12800 kPa, Liquid, x2 = 0.512 | 567 ± 26
324.9 K, 8620 kPa, Liquid, x2 = 0.849 | 507 ± 26
326.1 K, 16230 kPa, Liquid, x2 = 0.512 | 567 ± 26
328.6 K, 10330 kPa, Liquid, x2 = 0.849 | 507 ± 26
331.8 K, 12010 kPa, Liquid, x2 = 0.849 | 507 ± 26
332 K, 19720 kPa, Liquid, x2 = 0.512 | 567 ± 26
336.2 K, 14280 kPa, Liquid, x2 = 0.849 | 507 ± 26
337.7 K, 22920 kPa, Liquid, x2 = 0.512 | 567 ± 26
340.8 K, 16310 kPa, Liquid, x2 = 0.849 | 507 ± 26
341.2 K, 24970 kPa, Liquid, x2 = 0.512 | 567 ± 26
345.3 K, 18250 kPa, Liquid, x2 = 0.849 | 507 ± 26
349.2 K, 20380 kPa, Liquid, x2 = 0.849 | 507 ± 26
353.6 K, 22340 kPa, Liquid, x2 = 0.849 | 507 ± 26
357.2 K, 24290 kPa, Liquid, x2 = 0.849 | 507 ± 26
394.8 K, 3250 kPa, Liquid, x2 = 0.551 | 401 ± 15
397.7 K, 4520 kPa, Liquid, x2 = 0.78 | 311 ± 1
404.7 K, 4010 kPa, Fluid (supercritical or subcritical phases), x2 = 0.551 | 401 ± 36
406.5 K, 5640 kPa, Fluid (supercritical or subcritical phases), x2 = 0.78 | 311 ± 150
409.3 K, 3610 kPa, Liquid, x2 = 0.474 | 384 ± 16
410.5 K, 4620 kPa, Fluid (supercritical or subcritical phases), x2 = 0.551 | 401 ± 36
416.5 K, 6760 kPa, Fluid (supercritical or subcritical phases), x2 = 0.78 | 311 ± 28
418.3 K, 5640 kPa, Fluid (supercritical or subcritical phases), x2 = 0.551 | 401 ± 110
419.2 K, 4730 kPa, Fluid (supercritical or subcritical phases), x2 = 0.474 | 384 ± 26
428.6 K, 8280 kPa, Fluid (supercritical or subcritical phases), x2 = 0.78 | 311 ± 28
428.9 K, 6560 kPa, Fluid (supercritical or subcritical phases), x2 = 0.474 | 384 ± 26
437.3 K, 9610 kPa, Fluid (supercritical or subcritical phases), x2 = 0.78 | 311 ± 22
439.5 K, 8280 kPa, Fluid (supercritical or subcritical phases), x2 = 0.474 | 384 ± 24
447.3 K, 10720 kPa, Fluid (supercritical or subcritical phases), x2 = 0.78 | 311 ± 22
449.2 K, 10010 kPa, Fluid (supercritical or subcritical phases), x2 = 0.474 | 384 ± 24
456.4 K, 12260 kPa, Fluid (supercritical or subcritical phases), x2 = 0.78 | 311 ± 22

— the NIST ThermoML archive (doi:10.1021/acs.jced.9b00249)
